Results as given in PubChem BioAssay AID2060907 (Molecular Pharmacology Branch, DTP, NCI, 2025).

Test system: 388556-164-R-J1-PDC complex spheroid viability
Assay: Anticancer human tumor 388556-164-R-J1-PDC patient-derived colon adenocarcinoma cell line growth inhibition [RAS]
Settings: for IC50: curve of first compound; for viability, T/C: stronger effect = lower value
Method in brief: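 Agents were tested in combination matrices in half-log decrements from a top concentration at or near clinical Cmax (10 microM if undetermined). Targets were multi-cell spheroids of tumour lines plus HUVEC and MSC stromal cells.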
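Further: spheroids exposed to compound for 7 days before readout.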
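Wherever viability, T/C is given: 100% = DMSO vehicle control luminescence.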

How did the IC50 (second compound 0.000949 µM) turn out when CC1(O)CCCC1n1c(=O)c(C(F)F)cc2cnc(NC3CCN(S(C)(=O)=O)CC3)nc21 (configuration not stated) + CCn1c(-c2cc(N3CCN(C)CC3)cnc2C(C)OC)c2c3cc(ccc31)-c1csc(n1)CC(NC(=O)C1CC1C)C(=O)N1CCCC(N1)C(=O)OCC(C)(C)C2 was run?
Its IC50 is greater than 10 µM.

What about the IC50 (second compound 0.003 µM) of the same molecule?
The IC50 was greater than 10 µM.

And the IC50 (second compound 0.00949 µM)?
The IC50 was 9.45 µM.

And the IC50 (second compound 0.03 µM)?
The IC50 was greater than 10 µM.

And the IC50 (second compound 0.0949 µM)?
Its IC50 is less than 0.0316 µM.

What about the IC50 (second compound 0.3 µM) of the same molecule?
The IC50 was less than 0.0316 µM.

And the viability, T/C (second compound 0.000949 µM, first compound 0.0316 µM)?
The viability, T/C was 91.1%.

And the viability, T/C (second compound 0.000949 µM, first compound 0.1 µM)?
The viability, T/C was 94.2%.

And the viability, T/C (second compound 0.000949 µM, first compound 0.316 µM)?
The viability, T/C was 89.8%.

What about the viability, T/C (second compound 0.000949 µM, first compound 1 µM) of the same molecule?
The viability, T/C was 91.6%.

And the viability, T/C (second compound 0.000949 µM, first compound 3.16 µM)?
Its viability, T/C is 94.1%.

What about the viability, T/C (second compound 0.000949 µM, first compound 10 µM) of the same molecule?
The viability, T/C was 61.7%.

What about the viability, T/C (second compound 0.003 µM, first compound 0.0316 µM) of the same molecule?
Its viability, T/C is 102%.

And the viability, T/C (second compound 0.003 µM, first compound 0.1 µM)?
Its viability, T/C is 91.7%.

And the viability, T/C (second compound 0.003 µM, first compound 0.316 µM)?
The viability, T/C was 90%.

And the viability, T/C (second compound 0.003 µM, first compound 1 µM)?
Its viability, T/C is 78.7%.

And the viability, T/C (second compound 0.003 µM, first compound 3.16 µM)?
Its viability, T/C is 87.3%.

What about the viability, T/C (second compound 0.003 µM, first compound 10 µM) of the same molecule?
The viability, T/C was 62.8%.

What about the viability, T/C (second compound 0.00949 µM, first compound 0.0316 µM) of the same molecule?
Its viability, T/C is 78.8%.

What about the viability, T/C (second compound 0.00949 µM, first compound 0.1 µM) of the same molecule?
Its viability, T/C is 75.4%.

And the viability, T/C (second compound 0.00949 µM, first compound 0.316 µM)?
The viability, T/C was 80.6%.

What about the viability, T/C (second compound 0.00949 µM, first compound 1 µM) of the same molecule?
Its viability, T/C is 77.9%.

What about the viability, T/C (second compound 0.00949 µM, first compound 3.16 µM) of the same molecule?
The viability, T/C was 72.7%.

And the viability, T/C (second compound 0.00949 µM, first compound 10 µM)?
The viability, T/C was 48.8%.

What about the viability, T/C (second compound 0.03 µM, first compound 0.0316 µM) of the same molecule?
The viability, T/C was 62.6%.

And the viability, T/C (second compound 0.03 µM, first compound 0.1 µM)?
The viability, T/C was 58.5%.

What about the viability, T/C (second compound 0.03 µM, first compound 0.316 µM) of the same molecule?
The viability, T/C was 64.9%.

What about the viability, T/C (second compound 0.03 µM, first compound 1 µM) of the same molecule?
The viability, T/C was 59.4%.

What about the viability, T/C (second compound 0.03 µM, first compound 3.16 µM) of the same molecule?
The viability, T/C was 66%.

What about the viability, T/C (second compound 0.03 µM, first compound 10 µM) of the same molecule?
Its viability, T/C is 44.2%.

And the viability, T/C (second compound 0.0949 µM, first compound 0.0316 µM)?
Its viability, T/C is 46.7%.

What about the viability, T/C (second compound 0.0949 µM, first compound 0.1 µM) of the same molecule?
The viability, T/C was 44%.

And the viability, T/C (second compound 0.0949 µM, first compound 0.316 µM)?
The viability, T/C was 47.3%.

What about the viability, T/C (second compound 0.0949 µM, first compound 1 µM) of the same molecule?
Its viability, T/C is 42.4%.

What about the viability, T/C (second compound 0.0949 µM, first compound 3.16 µM) of the same molecule?
The viability, T/C was 45.7%.

And the viability, T/C (second compound 0.0949 µM, first compound 10 µM)?
Its viability, T/C is 35.1%.

What about the viability, T/C (second compound 0.3 µM, first compound 0.0316 µM) of the same molecule?
Its viability, T/C is 31.2%.

And the viability, T/C (second compound 0.3 µM, first compound 0.1 µM)?
Its viability, T/C is 37%.

And the viability, T/C (second compound 0.3 µM, first compound 0.316 µM)?
Its viability, T/C is 33.4%.

What about the viability, T/C (second compound 0.3 µM, first compound 1 µM) of the same molecule?
The viability, T/C was 38.8%.

And the viability, T/C (second compound 0.3 µM, first compound 3.16 µM)?
Its viability, T/C is 38.1%.

What about the viability, T/C (second compound 0.3 µM, first compound 10 µM) of the same molecule?
The viability, T/C was 24.1%.
